Measured values as given in patent US20220087969A1, “METHOD FOR TREATING ASTHMA” (Olatec Therapeutics LLC, priority 2019, published 2022).

Assays:
[1] = tested on: OVA-induced allergic airway inflammation; test: Leukocyte subpopulations in BALF, OVA model, oral dapansutrile in food; format: in vivo, mice
Procedure: The experimental protocols of the mouse model were the same as those described in Example 1, except dapansutrile was administered orally by food. The already-sensitized mice were fed ad libidum with food pellets containing 7.5 g/kg dapansutrile starting on day 22 for one week; the first aerosol challenge was on day 26. Mice typically consume about 4 g of food per day, resulting in an approximate daily dose of 0 mg/kg/day for control groups and 1,000 mg/kg/day for the treatment groups. […] OVA-sensitized, OVA-challenged asthmatic controls (asthmatic) were fed with control food pellets without dapansutrile.

[2] = tested on: OVA-induced allergic airway inflammation; test: Inflammatory cell infiltrate in lung tissue, OVA model, oral dapansutrile in food; format: in vivo; details: 7.5 g/kg in food, treated vs asthmatic mice, p<0.05
Procedure: The experimental protocols of the mouse model were the same as those described in Example 1, except dapansutrile was administered orally by food. The already-sensitized mice were fed ad libidum with food pellets containing 7.5 g/kg dapansutrile starting on day 22 for one week; the first aerosol challenge was on day 26. Mice typically consume about 4 g of food per day, resulting in an approximate daily dose of 0 mg/kg/day for control groups and 1,000 mg/kg/day for the treatment groups. […] OVA-sensitized, OVA-challenged asthmatic controls (asthmatic) were fed with control food pellets without dapansutrile. […] The label on the y-axis reads “volume of inflammatory cell infiltrate per basal membrane area (μm^3/μm^2)”. The inflammatory cells were counted within a specific distance around the airways using a microscope with the computer assisted stereological toolbox (CAST) system. These counts were set in ratio to the basal membrane to normalize within each microscopic slide to avoid slide-dependent differences.

[3] = oral, 7.5 g/kg in food, vs asthmatic mice, p<0.05

CS(=O)(=O)CCC#N [dapansutrile, 3-methanesulfonylpropionitrile]
reduction in eosinophils in BALF ([1]; oral, 7.5 g/kg in food from day 22 for one week, vs asthmatic mice, p<0.0001): ~75% | macrophage numbers in BALF ([1]; oral, 7.5 g/kg in food, vs asthmatic mice): no significant reduction | reduction in lymphocytes in BALF [1, 3]: ~75% | reduction in neutrophils in BALF [1, 3]: ~75% | lymphocytes in BALF ([1]; treated mice, oral 7.5 g/kg in food, asthmatic 1.00×10^4): 0.26×10^4 cells/ml | neutrophils in BALF ([1]; treated mice, oral 7.5 g/kg in food, asthmatic 1.74×10^4): 0.43×10^4 cells/ml | eosinophils in BALF ([1]; treated mice, oral 7.5 g/kg in food, asthmatic 15.93×10^4): 3.77×10^4 cells/ml | number of inflammatory cells in lung tissue (volume of inflammatory cell infiltrate per basal membrane area) [2]: significantly lower
